Laboratory results from patent publication US9730940B2, “Purine inhibitors of human phosphatidylinositol 3-kinase delta” (priority 2012, dated 2017).

What follows are compounds tested against PI3K-alpha (Homo sapiens (Human), UniProt P42336) (assay: HTRF PI3K biochemical assay, alpha isoform). Settings: ratio PI3K-alpha IC50 value/PI3K-delta IC50 value.
Chain of PI3K-alpha (P42336 whole entry, looked up, canonical isoform): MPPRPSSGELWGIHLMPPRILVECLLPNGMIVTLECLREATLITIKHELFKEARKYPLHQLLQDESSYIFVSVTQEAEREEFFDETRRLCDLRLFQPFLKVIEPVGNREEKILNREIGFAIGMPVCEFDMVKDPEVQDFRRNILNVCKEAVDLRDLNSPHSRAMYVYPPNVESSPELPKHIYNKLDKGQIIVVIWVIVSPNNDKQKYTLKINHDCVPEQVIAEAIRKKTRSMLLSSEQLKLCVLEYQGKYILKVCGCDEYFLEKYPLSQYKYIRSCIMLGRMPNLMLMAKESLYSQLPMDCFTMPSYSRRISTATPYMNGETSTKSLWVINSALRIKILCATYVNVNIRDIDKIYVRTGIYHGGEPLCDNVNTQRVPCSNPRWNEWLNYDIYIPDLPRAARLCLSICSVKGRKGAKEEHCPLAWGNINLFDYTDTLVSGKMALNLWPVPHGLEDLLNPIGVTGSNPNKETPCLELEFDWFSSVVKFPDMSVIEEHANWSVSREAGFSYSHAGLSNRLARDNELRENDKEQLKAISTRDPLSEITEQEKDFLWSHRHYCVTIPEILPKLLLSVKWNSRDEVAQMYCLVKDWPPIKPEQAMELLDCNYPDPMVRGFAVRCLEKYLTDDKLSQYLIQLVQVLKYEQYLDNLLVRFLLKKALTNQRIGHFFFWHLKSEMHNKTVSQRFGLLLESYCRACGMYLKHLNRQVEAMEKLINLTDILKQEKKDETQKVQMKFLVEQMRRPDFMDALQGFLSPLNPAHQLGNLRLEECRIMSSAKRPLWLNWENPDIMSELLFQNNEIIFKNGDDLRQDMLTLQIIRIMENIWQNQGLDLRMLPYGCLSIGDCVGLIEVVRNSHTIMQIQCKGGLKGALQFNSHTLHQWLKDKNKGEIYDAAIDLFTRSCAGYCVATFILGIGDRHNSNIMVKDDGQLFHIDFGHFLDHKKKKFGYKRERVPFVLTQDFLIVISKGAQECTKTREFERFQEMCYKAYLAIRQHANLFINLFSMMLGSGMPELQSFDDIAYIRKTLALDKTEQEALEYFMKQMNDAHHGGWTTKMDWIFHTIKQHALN
Chain of PI3K-alpha (P27986 whole entry partner, looked up, canonical isoform): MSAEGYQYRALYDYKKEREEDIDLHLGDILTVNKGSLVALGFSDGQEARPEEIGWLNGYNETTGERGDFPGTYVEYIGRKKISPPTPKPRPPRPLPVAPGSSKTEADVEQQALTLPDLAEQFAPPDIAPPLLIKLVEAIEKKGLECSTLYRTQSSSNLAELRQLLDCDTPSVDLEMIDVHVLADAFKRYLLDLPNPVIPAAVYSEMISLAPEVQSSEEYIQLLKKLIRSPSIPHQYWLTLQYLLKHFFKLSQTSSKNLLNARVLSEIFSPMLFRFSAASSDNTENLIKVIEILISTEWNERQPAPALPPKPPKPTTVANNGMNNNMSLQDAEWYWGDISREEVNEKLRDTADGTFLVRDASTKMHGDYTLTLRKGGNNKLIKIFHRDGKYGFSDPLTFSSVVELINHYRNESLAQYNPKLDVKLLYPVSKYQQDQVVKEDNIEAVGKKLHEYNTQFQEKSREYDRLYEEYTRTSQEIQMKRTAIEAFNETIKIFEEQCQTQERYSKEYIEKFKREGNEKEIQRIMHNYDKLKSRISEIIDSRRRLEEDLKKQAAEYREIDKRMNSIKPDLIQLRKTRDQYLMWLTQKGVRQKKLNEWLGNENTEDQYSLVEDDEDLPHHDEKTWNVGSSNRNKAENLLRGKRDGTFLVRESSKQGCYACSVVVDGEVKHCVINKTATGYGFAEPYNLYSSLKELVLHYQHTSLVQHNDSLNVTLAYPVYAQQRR

Structure (SMILES) | Relative Selectivity versus PI3Kalpha
CCC(=O)N1CC[C@H](Oc2ncnc3c2nc(-c2cnc(OC)c(C(F)(F)F)c2)n3C)C1 [Compound 3-6, (S)-1-(3-((8-(6-methoxy-5-(trifluoromethyl)pyridin-3-yl)-9-methyl-9H-purin-6-yl)oxy)pyrrolidin-1-yl)propan-1-one] | >10
CCC(=O)N1CC[C@H](Oc2ncnc3c2nc(-c2ccc4[nH]ccc4c2)n3C)C1 [Compound 3-7, (S)-1-(3-((8-(1H-indol-5-yl)-9-methyl-9H-purin-6-yl)oxy)pyrrolidin-1-yl)propan-1-one] | >10
CCC(=O)N1CC[C@H](Oc2ncnc3c2nc(-c2ccc(C)nc2)n3C)C1 [Compound 3-8, (S)-1-(3-((9-methyl-8-(6-methylpyridin-3-yl)-9H-purin-6-yl)oxy)pyrrolidin-1-yl)propan-1-one] | >10
CCC(=O)N1CC[C@H](Oc2ncnc3c2nc(-c2cc(O)cc(F)c2)n3C)C1 [Compound 3-9, 3-fluoro-5-(9-methyl-6-{[(3S)-1-propanoylpyrrolidin-3-yl]oxy}-9H-purin-8-yl)phenol] | >10
CCC(=O)N1CC[C@H](Oc2ncnc3c2nc(-c2cnc4[nH]nc(C)c4c2)n3C)C1 [Compound 3-10, 9-methyl-8-(3-methyl-1H-pyrazolo[3,4-b]pyridin-5-yl)-6-{[(3S)-1-propanoylpyrrolidin-3-yl]oxy}-9H-purine] | >10
CCC(=O)N1CC[C@H](Oc2ncnc3c2nc(-c2cnn(-c4ccccc4)c2)n3C)C1 [Compound 3-11, 9-methyl-8-(1-phenyl-1H-pyrazol-4-yl)-6-{[(3S)-1-propanoylpyrrolidin-3-yl]oxy}-9H-purine] | >10
CCC(=O)N1CC[C@H](Oc2ncnc3c2nc(-c2cnn(-c4ccccc4)c2C)n3C)C1 [Compound 3-12, 9-methyl-8-(5-methyl-1-phenyl-1H-pyrazol-4-yl)-6-{[(3S)-1-propanoylpyrrolidin-3-yl]oxy}-9H-purine] | >10
CCC(=O)N1CC[C@H](Oc2ncnc3[nH]c(-c4cnn(CC)c4C)nc23)C1 [Compound 3-13, 8-(1-ethyl-5-methyl-1H-pyrazol-4-yl)-6-{[(3S)-1-propanoylpyrrolidin-3-yl]oxy}-9H-purine] | >10
CCC(=O)N1CC[C@H](Oc2ncnc3c2nc(-c2cc(F)cc(NS(C)(=O)=O)c2)n3C)C1 [Compound 3-14, N-[3-fluoro-5-(9-methyl-6-{[(3S)-1-propanoylpyrrolidin-3-yl]oxy}-9H-purin-8-yl)phenyl]methanesulfonamide] | >10
CCC(=O)N1CC[C@H](Oc2ncnc3c2nc(-c2cncc(N)c2)n3C)C1 [Compound 3-15, 5-(9-methyl-5-{[(3S)-1-propanoylpyrrolidin-3-yl]oxy}-9H-purin-8-yl)pyridin-3-amine] | >10
CCC(=O)N1CC[C@H](Oc2ncnc3c2nc(-c2cnn(C(C)(C)C)c2)n3C)C1 [Compound 3-16, 8-(1-tert-butyl-1H-pyrazol-4-yl)-9-methyl-6-{[(3S)-1-propanoylpyrrolidin-3-yl]oxy}-9H-purine] | >10
CCC(=O)N1CC[C@H](Oc2ncnc3c2nc(-c2ccc(Cl)nc2)n3C)C1 [Compound 3-17, 8-(6-chloropyridin-3-yl)-9-methyl-6-{[(3S)-1-propanoylpyrrolidin-3-yl]oxy}-9H-purine] | >10
CCCn1c(-c2cnn(CC)c2C)nc2c(O[C@H]3CCN(C(=O)CC)C3)ncnc21 [Compound 3-18, 8-(1-ethyl-5-methyl-1H-pyrazol-4-yl)-6-{[(3S)-1-propanoylpyrrolidin-3-yl]oxy}-9-propyl-9H-purine] | >10
CCCn1c(-c2cnc(C)nc2)nc2c(O[C@H]3CCN(C(=O)CC)C3)ncnc21 [Compound 3-19, 8-(2-methylpyrimidin-5-yl)-6-{[(3S)-1-propanoylpyrrolidin-3-yl]oxy}-9-propyl-9H-purine] | >10
CCC(=O)N1CC[C@H](Oc2ncnc3c2nc(-c2cnc(C)nc2)n3C)C1 [Compound 3-20, 9-methyl-8-(2-methylpyrimidin-5-yl)-6-{[(3S)-1-propanoylpyrrolidin-3-yl]oxy}-9H-purine] | >10
CCC(=O)N1CC[C@H](Oc2ncnc3c2nc(-c2cnn(CC)c2C)n3CC(F)F)C1 [Compound 3-21, 9-(2,2-difluoroethyl)-8-(1-ethyl-5-methyl-1H-pyrazol-4-yl)-6-{[(3S)-1-propanoylpyrrolidin-3-yl]oxy}-9H-purine] | >10
CCC(=O)N1CC[C@H](Oc2ncnc3c2nc(-c2cnn4c2CCC4)n3C)C1 [Compound 3-22, 8-(5,6-dihydro-4H-pyrrolo[1,2-b]pyrazol-3-yl)-9-methyl-6-{[(3S)-1-propanoylpyrrolidin-3-yl]oxy}-9H-purine] | >10

Structure (SMILES) | Relative Selectivity versus PI3Kalpha
CCn1c(-c2cnn(-c3ccccc3)c2C)nc2c(O[C@H]3CCN(C(=O)C4CC4)C3)ncnc21 [Compound 3-23, 6-{[(3S)-1-(cyclopropylcarbonyl)pyrrolidin-3-yl]oxy}-9-ethyl-8-(5-methyl-1-phenyl-1H-pyrazol-4-yl)-9H-purine] | >10
CCn1c(-c2ccc(OC)c(F)c2)nc2c(O[C@H]3CCN(C(=O)C4CC4)C3)ncnc21 [Compound 3-24, 6-{[(3S)-1-(cyclopropylcarbonyl)pyrrolidin-3-yl]oxy}-9-ethyl-8-(3-fluoro-4-methoxyphenyl)-9H-purine] | >10
CCn1c(-c2cnc3[nH]ccc3c2)nc2c(O[C@H]3CCN(C(=O)C4CC4)C3)ncnc21 [Compound 3-25, 6-{[(3S)-1-(cyclopropylcarbonyl)pyrrolidin-3-yl]oxy}-9-ethyl-8-(1H-pyrrolo[2,3-b]pyridin-5-yl)-9H-purine] | >10
CCn1c(-c2cnc(OC)c(C(F)(F)F)c2)nc2c(O[C@H]3CCN(C(=O)C4CC4)C3)ncnc21 [Compound 3-26, 5-{[(3S)-1-(cyclopropylcarbonyl)pyrrolidin-3-yl]oxy}-9-ethyl-8-[6-methoxy-5-(trifluoromethyl)pyridin-3-yl]-9H-purine] | >10
CCn1c(-c2cnc(OC)nc2)nc2c(O[C@H]3CCN(C(=O)C4CC4)C3)ncnc21 [Compound 3-27, 6-{[(3S)-1-(cyclopropylcarbonyl)pyrrolidin-3-yl]oxy}-9-ethyl-8-(2-methoxypyrimidin-5-yl)-9H-purine] | >10
CCn1c(-c2cnc(OC)c(Cl)c2)nc2c(O[C@H]3CCN(C(=O)C4CC4)C3)ncnc21 [Compound 3-28, 8-(5-chloro-6-methoxypyridin-3-yl)-6-{[(3S)-1-(cyclopropylcarbonyl)pyrrolidin-3-yl]oxy}-9-ethyl-9H-purine] | >10
CCn1c(-c2cnc(C)nc2C)nc2c(O[C@H]3CCN(C(=O)C4CC4)C3)ncnc21 [Compound 3-29, 6-{[(3S)-1-(cyclopropylcarbonyl)pyrrolidin-3-yl]oxy}-8-(2,4-dimethylpyrimidin-5-yl)-9-ethyl-9H-purine] | >10
CCn1c(-c2cnc(C)c(F)c2)nc2c(O[C@H]3CCN(C(=O)C4CC4)C3)ncnc21 [Compound 3-30, 6-{[(3S)-1-(cyclopropylcarbonyl)pyrrolidin-3-yl]oxy}-9-ethyl-8-(5-fluoro-6-methylpyridin-3-yl)-9H-purine] | >10
CCC(=O)N1CC[C@H](Oc2ncnc3c2nc(I)n3C)C1 [Compound 3-31, 8-iodo-9-methyl-6-{[(3S)-1-propanoylpyrrolidin-3-yl]oxy}-9H-purine] | >10
CCC(=O)N1CC[C@H](Oc2ncnc3c2nc(-c2ccc(OC)c(F)c2)n3C)C1 [Compound 3-32, 8-(3-fluoro-4-methoxyphenyl)-9-methyl-5-{[(3S)-1-propanoylpyrrolidin-3-yl]oxy}-9H-purine] | >10
CCC(=O)N1CC[C@H](Oc2ncnc3c2nc(-c2ccc(OC)nc2)n3C)C1 [Compound 3-33, 8-(6-methoxypyridin-3-yl)-9-methyl-6-{[(3S)-1-propanoylpyrrolidin-3-yl]oxy}-9H-purine] | >10
CCC(=O)N1CC[C@H](Oc2ncnc3c2nc(-c2cnc(OC)c(F)c2)n3C)C1 [Compound 3-34, 8-(5-fluoro-6-methoxypyridin-3-yl)-9-methyl-6-{[(3S)-1-propanoylpyrrolidin-3-yl]oxy}-9H-purine] | >10
CCC(=O)N1CC[C@H](Oc2ncnc3c2nc(-c2ccc(OC)c(C(F)(F)F)c2)n3C)C1 [Compound 3-35, 8-[4-methoxy-3-(trifluoromethyl)phenyl]-9-methyl-6-{[(3S)-1-propanoylpyrrolidin-3-yl]oxy}-9H-purine] | >10
CCC(=O)N1CC[C@H](Oc2ncnc3c2nc(-c2ccc(OC)c(C)c2)n3C)C1 [Compound 3-36, 8-(4-methoxy-3-methylphenyl)-9-methyl-6-{[(3S)-1-propanoylpyrrolidin-3-yl]oxy}-9H-purine] | >10
CCC(=O)N1CC[C@H](Oc2ncnc3c2nc(-c2cnc(OC)c(C#N)c2)n3C)C1 [Compound 3-37, 2-methoxy-5-(9-methyl-6-{[(3S)-1-propanoylpyrrolidin-3-yl]oxy}-9H-purin-8-yl)pyridine-3-carbonitrile] | >10
CCC(=O)N1CC[C@H](Oc2ncnc3c2nc(-c2cnc(OC)c(NS(C)(=O)=O)c2)n3C)C1 [Compound 3-38, N-[2-methoxy-5-(9-methyl-6-{[(3S)-1-propanoylpyrrolidin-3-yl]oxy}-9H-purin-8-yl)pyridin-3-yl]methanesulfonamide] | >10
